In ChEMBL document CHEMBL1201862, “PubChem BioAssay data set” (2004):
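How tested: cells in 96-well plates exposed to compound for 48 hours at five concentrations. GI50 marks 50% less growth.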 Activity calls are given as the source filed them. Rule as the data show it: active = GI50 up to about 1.1 µM and inactive = higher.

Legend:
Assay in all cases: growth of human tumour cells (NCI), 48 h
[1] = tested on: 786-0
[2] = tested on: A498
[3] = tested on: A549
[4] = tested on: ACHN
[5] = tested on: BT-549
[6] = tested on: CAKI-1
[7] = tested on: CCRF-CEM
[8] = tested on: COLO 205
[9] = tested on: DU-145
[10] = tested on: EKVX
[11] = tested on: HCC 2998
[12] = tested on: HCT-116
[13] = tested on: HCT-15
[14] = tested on: HL-60
[15] = tested on: HOP-62
[16] = tested on: HOP-92
[17] = tested on: HT-29
[18] = tested on: Hs-578T
[19] = tested on: IGROV-1
[20] = tested on: K562
[21] = tested on: KM12
[22] = tested on: LOX IMVI
[23] = tested on: M14
[24] = tested on: MCF7
[25] = tested on: MDA-MB-231
[26] = tested on: MDA-MB-435
[27] = tested on: MDA-N
[28] = tested on: MOLT-4
[29] = tested on: Malme-3M
[30] = tested on: NCI-H226
[31] = tested on: NCI-H23
[32] = tested on: NCI-H460
[33] = tested on: NCI-H522
[34] = tested on: NCI/ADR-RES
[35] = tested on: OVCAR-3
[36] = tested on: OVCAR-4
[37] = tested on: OVCAR-5
[38] = tested on: OVCAR-8
[39] = tested on: PC-3
[40] = tested on: RPMI-8226
[41] = tested on: RXF 393
[42] = tested on: SF-268
[43] = tested on: SF-295
[44] = tested on: SF-539
[45] = tested on: SK-MEL-28
[46] = tested on: SK-MEL-2
[47] = tested on: SK-MEL-5
[48] = tested on: SN12C
[49] = tested on: SNB-19
[50] = tested on: SNB-75
[51] = tested on: SR
[52] = tested on: SW-620
[53] = tested on: T47D
[54] = tested on: TK-10
[55] = tested on: U-251
[56] = tested on: UACC-257
[57] = tested on: UACC-62
[58] = tested on: UO-31
[59] = tested on: SK-OV-3

COc1cc2c(cc1OC)C(C1CC1)ON(C)CC2 (stereo unspecified)
GI50 [1]: > 100 µM (inactive)
GI50 [2]: > 100 µM (inactive)
GI50 [3]: > 100 µM (inactive)
GI50 [4]: > 100 µM (inactive)
GI50 [5]: > 100 µM (inactive)
GI50 [6]: > 100 µM (inactive)
GI50 [7]: > 100 µM (inactive)
GI50 [8]: > 100 µM (inactive)
GI50 [9]: > 100 µM (inactive)
GI50 [10]: 58.7 µM (inactive)
GI50 [11]: > 100 µM (inactive)
GI50 [12]: > 100 µM (inactive)
GI50 [13]: > 100 µM
GI50 [14]: > 100 µM (inactive)
GI50 [15]: > 100 µM (inactive)
GI50 [16]: > 100 µM (inactive)
GI50 [17]: > 100 µM (inactive)
GI50 [18]: > 100 µM (inactive)
GI50 [19]: > 100 µM (inactive)
GI50 [20]: > 100 µM (inactive)
GI50 [21]: > 100 µM (inactive)
GI50 [22]: > 100 µM (inactive)
GI50 [23]: > 100 µM (inactive)
GI50 [24]: > 100 µM (inactive)
GI50 [25]: > 100 µM (inactive)
GI50 [26]: > 100 µM (inactive)
GI50 [27]: > 100 µM (inactive)
GI50 [28]: > 100 µM (inactive)
GI50 [29]: > 100 µM (inactive)
GI50 [30]: > 100 µM (inactive)
GI50 [31]: > 100 µM (inactive)
GI50 [32]: > 100 µM (inactive)
GI50 [33]: > 100 µM (inactive)
GI50 [34]: > 100 µM (inactive)
GI50 [35]: > 100 µM (inactive)
GI50 [36]: > 100 µM (inactive)
GI50 [37]: > 100 µM (inactive)
GI50 [38]: > 100 µM (inactive)
GI50 [39]: > 100 µM (inactive)
GI50 [40]: > 100 µM (inactive)
GI50 [41]: > 100 µM (inactive)
GI50 [42]: > 100 µM (inactive)
GI50 [43]: > 100 µM (inactive)
GI50 [44]: > 100 µM (inactive)
GI50 [45]: > 100 µM (inactive)
GI50 [46]: > 100 µM (inactive)
GI50 [47]: > 100 µM (inactive)
GI50 [48]: > 100 µM (inactive)
GI50 [49]: > 100 µM (inactive)
GI50 [50]: > 100 µM (inactive)
GI50 [51]: > 100 µM (inactive)
GI50 [52]: > 100 µM (inactive)
GI50 [53]: > 100 µM (inactive)
GI50 [54]: > 100 µM (inactive)
GI50 [55]: > 100 µM (inactive)
GI50 [56]: > 100 µM (inactive)
GI50 [57]: > 100 µM (inactive)
GI50 [58]: > 100 µM (inactive)

C=C(C)[C@H]1C[C@@H]2O[C@@](O)(/C(C)=C\C(=O)/C=C(/C)C[C@H]3OC(=O)[C@@]24O[C@H]34)[C@@H]1O
GI50 [1]: > 100 µM (inactive)
GI50 [2]: > 100 µM (inactive)
GI50 [3]: > 100 µM (inactive)
GI50 [4]: > 100 µM (inactive)
GI50 [5]: > 100 µM (inactive)
GI50 [6]: > 100 µM (inactive)
GI50 [7]: > 100 µM (inactive)
GI50 [8]: > 100 µM (inactive)
GI50 [9]: > 100 µM (inactive)
GI50 [10]: > 100 µM (inactive)
GI50 [11]: > 100 µM (inactive)
GI50 [12]: > 100 µM (inactive)
GI50 [13]: > 100 µM
GI50 [14]: > 100 µM (inactive)
GI50 [16]: > 100 µM (inactive)
GI50 [17]: > 100 µM (inactive)
GI50 [18]: > 100 µM (inactive)
GI50 [19]: > 100 µM (inactive)
GI50 [20]: > 100 µM (inactive)
GI50 [21]: > 100 µM (inactive)
GI50 [22]: > 100 µM (inactive)
GI50 [23]: > 100 µM (inactive)
GI50 [24]: > 100 µM (inactive)
GI50 [25]: > 100 µM (inactive)
GI50 [26]: > 100 µM (inactive)
GI50 [27]: > 100 µM (inactive)
GI50 [28]: > 100 µM (inactive)
GI50 [29]: > 100 µM (inactive)
GI50 [30]: > 100 µM (inactive)
GI50 [32]: > 100 µM (inactive)
GI50 [33]: > 100 µM (inactive)
GI50 [34]: > 100 µM (inactive)
GI50 [35]: > 100 µM (inactive)
GI50 [36]: > 100 µM (inactive)
GI50 [37]: > 100 µM (inactive)
GI50 [38]: > 100 µM (inactive)
GI50 [39]: > 100 µM (inactive)
GI50 [40]: > 100 µM (inactive)
GI50 [41]: 25.7 µM (inactive)
GI50 [42]: > 100 µM (inactive)
GI50 [43]: > 100 µM (inactive)
GI50 [44]: > 100 µM (inactive)
GI50 [45]: > 100 µM (inactive)
GI50 [46]: > 100 µM (inactive)
GI50 [47]: > 100 µM (inactive)
GI50 [59]: > 100 µM (inactive)
GI50 [48]: > 100 µM (inactive)
GI50 [49]: > 100 µM (inactive)
GI50 [50]: > 100 µM (inactive)
GI50 [51]: 47.4 µM (inactive)
GI50 [52]: > 100 µM (inactive)
GI50 [53]: > 100 µM (inactive)
GI50 [54]: > 100 µM (inactive)
GI50 [55]: > 100 µM (inactive)
GI50 [56]: > 100 µM (inactive)
GI50 [57]: > 100 µM (inactive)

COC(=O)c1cc2c3c(c1)Oc1cc(C(=O)OC)cc4c1C3c1c(cc(C(=O)OC)cc1O4)O2
GI50 [1]: 11 µM (inactive)
GI50 [2]: > 76.2 µM (inactive)
GI50 [3]: 12.6 µM (inactive)
GI50 [4]: 11.7 µM (inactive)
GI50 [5]: 20.5 µM (inactive)
GI50 [6]: 14 µM (inactive)
GI50 [7]: 11.4 µM (inactive)
GI50 [8]: 23.7 µM (inactive)
GI50 [9]: 5.14 µM (inactive)
GI50 [10]: 16.4 µM (inactive)
GI50 [11]: 31.8 µM (inactive)
GI50 [12]: 18.6 µM (inactive)
GI50 [13]: > 32 µM
GI50 [14]: 3.03 µM (inactive)
GI50 [15]: 11.4 µM (inactive)
GI50 [16]: 19.4 µM (inactive)
GI50 [17]: 0.802 µM (active)
GI50 [18]: 15.3 µM (inactive)
GI50 [19]: 11.9 µM (inactive)
GI50 [20]: 11.5 µM (inactive)
GI50 [21]: 10.1 µM (inactive)
GI50 [22]: 5.92 µM (inactive)
GI50 [23]: 26.6 µM (inactive)
GI50 [24]: 10.6 µM (inactive)
GI50 [25]: 17.1 µM (inactive)
GI50 [26]: 9.68 µM (inactive)
GI50 [27]: 8.22 µM (inactive)
GI50 [28]: 7.41 µM (inactive)
GI50 [29]: 8.99 µM (inactive)
GI50 [30]: 3.82 µM (inactive)
GI50 [31]: 25.1 µM (inactive)
GI50 [32]: 23.8 µM (inactive)
GI50 [33]: 3.19 µM (inactive)
GI50 [34]: 0.163 µM (active)
GI50 [35]: 10.3 µM (inactive)
GI50 [36]: 34 µM (inactive)
GI50 [37]: 24.5 µM (inactive)
GI50 [39]: 10.4 µM (inactive)
GI50 [40]: 6.44 µM (inactive)
GI50 [41]: 0.406 µM (active)
GI50 [42]: 9.18 µM (inactive)
GI50 [43]: 10.6 µM (inactive)
GI50 [44]: 15.1 µM (inactive)
GI50 [45]: 34 µM (inactive)
GI50 [46]: 36.6 µM (inactive)
GI50 [47]: 2.92 µM (inactive)
GI50 [59]: 16.6 µM (inactive)
GI50 [48]: 32.7 µM (inactive)
GI50 [49]: 20 µM (inactive)
GI50 [50]: 5.81 µM (inactive)
GI50 [51]: 13.8 µM (inactive)
GI50 [52]: 35 µM (inactive)
GI50 [53]: 20 µM (inactive)
GI50 [54]: 15.3 µM (inactive)
GI50 [55]: 12.3 µM (inactive)
GI50 [56]: 27.4 µM (inactive)
GI50 [57]: 16.9 µM (inactive)
GI50 [58]: 21 µM (inactive)

CCN(C(=O)N[C@H](C(=O)N[C@@H](C)C(=O)OC)C(C)C)c1ccccc1
GI50 [1]: 27.3 µM (inactive)
GI50 [2]: 46.3 µM (inactive)
GI50 [3]: > 100 µM (inactive)
GI50 [4]: 45.2 µM (inactive)
GI50 [5]: 60.4 µM (inactive)
GI50 [6]: > 100 µM (inactive)
GI50 [7]: 56 µM (inactive)
GI50 [8]: 20 µM (inactive)
GI50 [9]: > 100 µM (inactive)
GI50 [10]: > 100 µM (inactive)
GI50 [11]: 17.4 µM (inactive)
GI50 [12]: 22.5 µM (inactive)
GI50 [13]: 32.4 µM
GI50 [14]: 23.4 µM (inactive)
GI50 [15]: > 100 µM (inactive)
GI50 [16]: 24 µM (inactive)
GI50 [17]: 38.8 µM (inactive)
GI50 [18]: 32.9 µM (inactive)
GI50 [19]: 28.1 µM (inactive)
GI50 [20]: 24 µM (inactive)
GI50 [21]: 39.6 µM (inactive)
GI50 [22]: > 100 µM (inactive)
GI50 [23]: 31 µM (inactive)
GI50 [24]: 31 µM (inactive)
GI50 [25]: > 100 µM (inactive)
GI50 [26]: 21.2 µM (inactive)
GI50 [27]: 34.2 µM (inactive)
GI50 [28]: 65.2 µM (inactive)
GI50 [29]: 20 µM (inactive)
GI50 [30]: > 100 µM (inactive)
GI50 [31]: 64.3 µM (inactive)
GI50 [32]: 24 µM (inactive)
GI50 [33]: 19 µM (inactive)
GI50 [34]: > 100 µM (inactive)
GI50 [35]: 51.2 µM (inactive)
GI50 [36]: 65 µM (inactive)
GI50 [37]: > 100 µM (inactive)
GI50 [38]: 24.5 µM (inactive)
GI50 [39]: 39.1 µM (inactive)
GI50 [40]: 33.4 µM (inactive)
GI50 [41]: 39.5 µM (inactive)
GI50 [42]: > 100 µM (inactive)
GI50 [43]: 70 µM (inactive)
GI50 [44]: 19.2 µM (inactive)
GI50 [45]: 33.1 µM (inactive)
GI50 [46]: 28.8 µM (inactive)
GI50 [47]: 36.8 µM (inactive)
GI50 [59]: > 100 µM (inactive)
GI50 [48]: 33 µM (inactive)
GI50 [49]: 64.3 µM (inactive)
GI50 [50]: 32.1 µM (inactive)
GI50 [51]: 31.2 µM (inactive)
GI50 [52]: 39.2 µM (inactive)
GI50 [53]: 29.8 µM (inactive)
GI50 [54]: 35.7 µM (inactive)
GI50 [55]: 28.9 µM (inactive)
GI50 [56]: 20 µM (inactive)
GI50 [57]: 22.1 µM (inactive)
GI50 [58]: 43.3 µM (inactive)
